Measurements as given in patent publication US7598258B2, “Quinoline derivatives and quinazoline derivatives inhibiting autophosphorylation of macrophage colony stimulating factor receptor” (Kirin Beer Kabushiki Kaisha, priority 2002, dated 2009).

The compounds below were run against T1, mouse c-fms (Mus musculus, UniProt P09581) (assay: Inhibition of c-fms autophosphorylation in macrophage-like cell line BAC-1.2F5 by M-CSF stimulation (ELISA)). Details: BAC-1.2F5 cells, human recombinant M-CSF 50 ng/ml, read-out: c-fms autophosphorylation 50% inhibitory concentration (IC50).
T1 construct: Macrophage-like cell line BAC-1.2F5 which expresses c-fms as a M-CSF receptor on cell membranes; endogenous in cells; host or cells: BAC-1.2F5 mouse macrophage-like cell line
T1 sequence (P09581 20-977): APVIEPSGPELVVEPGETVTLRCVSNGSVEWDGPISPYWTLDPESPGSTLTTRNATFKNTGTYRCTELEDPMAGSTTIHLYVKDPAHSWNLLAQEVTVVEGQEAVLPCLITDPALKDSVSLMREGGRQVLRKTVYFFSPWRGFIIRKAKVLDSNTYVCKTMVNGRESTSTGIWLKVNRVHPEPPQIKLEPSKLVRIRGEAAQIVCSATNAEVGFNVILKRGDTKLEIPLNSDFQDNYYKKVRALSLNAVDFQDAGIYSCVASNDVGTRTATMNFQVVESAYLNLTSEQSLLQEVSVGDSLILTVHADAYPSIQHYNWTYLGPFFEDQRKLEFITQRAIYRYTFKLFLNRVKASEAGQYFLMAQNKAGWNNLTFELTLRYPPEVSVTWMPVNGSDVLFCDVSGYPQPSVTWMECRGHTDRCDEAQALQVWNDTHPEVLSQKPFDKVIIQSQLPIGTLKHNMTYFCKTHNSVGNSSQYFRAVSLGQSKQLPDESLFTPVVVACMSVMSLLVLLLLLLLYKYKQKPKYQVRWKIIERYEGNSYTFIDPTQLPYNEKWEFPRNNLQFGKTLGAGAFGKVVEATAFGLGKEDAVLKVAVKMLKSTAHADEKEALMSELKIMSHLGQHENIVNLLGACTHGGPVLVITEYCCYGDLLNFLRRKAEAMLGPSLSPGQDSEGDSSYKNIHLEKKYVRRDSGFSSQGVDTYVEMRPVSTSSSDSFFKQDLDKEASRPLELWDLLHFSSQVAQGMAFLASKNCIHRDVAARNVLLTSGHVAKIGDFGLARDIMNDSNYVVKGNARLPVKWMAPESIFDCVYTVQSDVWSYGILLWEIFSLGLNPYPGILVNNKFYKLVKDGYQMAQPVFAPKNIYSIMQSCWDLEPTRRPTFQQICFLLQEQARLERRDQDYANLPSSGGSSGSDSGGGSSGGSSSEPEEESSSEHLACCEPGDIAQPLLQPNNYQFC
Type: cell-based
Protocol: Macrophage-like cell line BAC-1.2F5 which expresses c-fms as a M-CSF receptor on cell membranes (CLAUDIA M. et al., J. Cell. Physiol., 130, 420-427 (1987), “Isolation and Characterization of a Cloned Growth Factor Dependent Macrophage Cell Line, BAC1.2F5”) was cultured at 37° C. in a DMEM medium containing L-cell supernatant and 10% fetal calf serum (GIBCO BRL) in a 5% CO2 incubator until about 50 to 70% confluent. The harvested cells were inoculated into wells, each containing the same medium, in a collagen type I coat 96-well flat-bottom plate in an amount of 5.0×10^4 per well, and cultured at 37° C. for 12 hr. Thereafter, the medium was replaced with a DMEM medium containing a 0.1% fetal calf serum and cultured for 12 hr. Thereafter, a test compound dissolved in dimethyl sulfoxide was added to each well, and cells were incubated at 37° C. for one hr. Human recombinant M-CSF was added to a final concentration of 50 ng/ml, and cells were stimulated at 37° C. for 6 min. After the medium was removed, 50 μl of a solubilization buffer (20 mM HEPES (pH 7.4), 150 mM NaCl, 0.2% Triton X-100, 10% glycerol, 5 mM sodium orthovanadylate, 5 mM disodium ethylenediaminetetraacetate, and 2 mM Na4P2O7) was added thereto. The mixture was shaken at 4° C. for 2 hr to prepare a cell extract as an assay sample which was then used for an ELISA assay.
The plate for the ELISA assay was prepared as follows. Phosphate buffered saline (50 μl, pH 7.4) containing 5 μg/ml of anti-phospho-tyrosine antibody (PY20; Transduction Laboratories) was added to a microplate for ELISA (Maxisorp; purchased from NUNC), followed by standing at 4° C. overnight to be immobilized on the wells. Thereafter, each well was washed twice with 200 μl of a Ca- and Mg-free phosphate buffer containing 0.1% Tween-20 (hereinafter referred to as “PBS-T”), and 200 μl of a blocking solution (Dainippon Pharmaceutical Co. Ltd.: BlockAce) was added to each well, and the wells were then allowed to stand at room temperature for 2 hr for blocking.
Separately, phosphate buffered saline (50 μl, pH 7.4) containing 5 μg/ml of anti-phospho-tyrosine antibody (PY20; Transduction Laboratories) was added to a microplate for ELISA (Maxisorp; purchased from NUNC), followed by standing at 4° C. overnight to form a solid phase on the wells. After washing of the plate, 300 μl of a blocking solution was added, followed by standing at room temperature for 2 hr to perform blocking. After washing, the whole quantity of the cell extract was transferred to the wells, and the plate was then allowed to stand at 4° C. overnight. After washing, anti-c-fms antiserum (Upstate Biotechnology, Inc.) was allowed to react at room temperature for one hr, and, after washing, a peroxidase-labeled anti-rabbit Ig antibody (Amersham) was allowed to react at room temperature for one hr. After washing, a chromophoric substrate for peroxidase (Sumitomo Bakelite Co., Ltd.) was added thereto to initiate a reaction. After a suitable level of color development, a reaction termination solution was added to stop the reaction, and the absorbance at 450 nm was measured with a microplate reader. The c-fms phosphorylation activity for each well was determined by presuming the absorbance without the addition of the test compound and with the addition of M-CSF to be 100% c-fms phosphorylation activity and the absorbance without the addition of the test compound and M-CSF to be 0% c-fms phosphorylation activity. The concentration of the test compound was varied on several levels, the c-fms phosphorylation inhibitory rate was determined for each case, and the concentration of the test compound necessary for inhibiting 50% of c-fms phosphorylation (IC50) was calculated.

| SMILES | IC50 [nM] |
| --- | --- |
| COc1cc2nccc(Oc3ccc(NC(=O)NC(C)c4ccc(F)cc4)cc3)c2cc1OC (stereo not shown) [Example 1, N-{4-[(6,7-Dimethoxy-4-quinolyl)oxy]phenyl}-N′-[1-(4-fluorophenyl)ethyl]urea] | 2.4 |
| COc1cc2nccc(Oc3ccc(NC(=O)N[C@H](C)c4ccc(F)cc4)c(Cl)c3)c2cc1OC [Example 6, N-{2-Chloro-4-[(6,7-dimethoxy-4-quinolyl)oxy]phenyl}-N′-[(1R)-1-(4-fluorophenyl)ethyl]urea] | 6 |
| COc1cc2nccc(Oc3ccc(NC(=O)NC(C)c4ccc(F)cc4)cc3Cl)c2cc1OC (stereo not shown) [Example 10, N-{3-Chloro-4-[(6,7-dimethoxy-4-quinolyl)oxy]phenyl}-N′-[1-(4-fluorophenyl)ethyl]urea] | 7.1 |
| COc1cc2nccc(Oc3ccc(NC(=O)N[C@@H](C)c4ccc(F)cc4)cc3Cl)c2cc1OC [Example 11, N-{3-Chloro-4-[(6,7-dimethoxy-4-quinolyl)oxy]phenyl}-N′-[(1S)-1-(4-fluorophenyl)ethyl]urea] | 11.7 |
| COc1cc2nccc(Oc3ccc(NC(=O)NC(C)c4ccc(F)cc4)c(C)c3)c2cc1OC (stereo not shown) [Example 13, N-{4-[(6,7-Dimethoxy-4-quinolyl)oxy]-2-methylphenyl}-N′-[1-(4-fluorophenyl)ethyl]urea] | 6.1 |
| COc1cc2nccc(Oc3ccc(NC(=O)N[C@@H](C)c4ccc(F)cc4)c(C)c3)c2cc1OC [Example 14, N-{4-[(6,7-Dimethoxy-4-quinolyl)oxy]-2-methylphenyl}-N′-[(1S)-1-(4-fluorophenyl)ethyl]urea] | 13 |
| COc1cc2nccc(Oc3ccc(NC(=O)N[C@H](C)c4ccc(F)cc4)c(C)c3)c2cc1OC [Example 15, N-{4-[(6,7-Dimethoxy-4-quinolyl)oxy]-2-methylphenyl}-N′-[(1R)-1-(4-fluorophenyl)ethyl]urea] | 5.7 |
| COc1cc(Oc2ccnc3cc(OC)c(OC)cc23)ccc1NC(=O)NC(C)c1ccc(F)cc1 (stereo not shown) [Example 16, N-{4-[(6,7-Dimethoxy-4-quinolyl)oxy]-2-methoxyphenyl}-N′-[1-(4-fluorophenyl)ethyl]urea] | 2 |
| COc1cc(Oc2ccnc3cc(OC)c(OC)cc23)ccc1NC(=O)N[C@@H](C)c1ccc(F)cc1 [Example 17, N-{4-[(6,7-Dimethoxy-4-quinolyl)oxy]-2-methoxyphenyl}-N′-[(1S)-1-(4-fluorophenyl)ethyl]urea] | 3.9 |
| COc1cc2nccc(Oc3ccc(NC(=O)NC(C)c4ccc(F)cc4)cc3OC)c2cc1OC (stereo not shown) [Example 22, N-{4-[(6,7-Dimethoxy-4-quinolyl)oxy]-3-methoxyphenyl}-N′-[1-(4-fluorophenyl)ethyl]urea] | 7.7 |
| COc1cc2nccc(Oc3ccc(NC(=O)N[C@H](C)c4ccc(F)cc4)cc3OC)c2cc1OC [Example 24, N-{4-[(6,7-Dimethoxy-4-quinolyl)oxy]-3-methoxyphenyl}-N′-[(1R)-1-(4-fluorophenyl)ethyl]urea] | 13.2 |

More lines, in order of falling IC50, values ahead:

| IC50 [nM] | SMILES |
| --- | --- |
| 22.5 | COc1cc2nccc(Oc3cc(C)c(NC(=O)N[C@@H](C)c4ccc(F)cc4)cc3C)c2cc1OC [Example 8, N-{4-[(6,7-Dimethoxy-4-quinolyl)oxy]-2,5-dimethylphenyl}-N′-[(1S)-1-(4-fluorophenyl)ethyl]urea] |
| 20.2 | COc1cc2nccc(Oc3cc(C)c(NC(=O)NC(C)c4ccc(F)cc4)cc3C)c2cc1OC (stereo not shown) [Example 7, N-{4-[(6,7-Dimethoxy-4-quinolyl)oxy]-2,5-dimethylphenyl}-N′-[1-(4-fluorophenyl)ethyl]urea] |
| 17.4 | COc1cc2nccc(Oc3cc(C)c(NC(=O)N[C@H](C)c4ccc(F)cc4)cc3C)c2cc1OC [Example 9, N-{4-[(6,7-Dimethoxy-4-quinolyl)oxy]-2,5-dimethylphenyl}-N′-[(1R)-1-(4-fluorophenyl)ethyl]urea] |
| 10.9 | COc1cc2nccc(Oc3ccc(NC(=O)N[C@H](C)c4ccc(F)cc4)cc3Cl)c2cc1OC [Example 12, N-{3-Chloro-4-[(6,7-dimethoxy-4-quinolyl)oxy]phenyl}-N′-[(1R)-1-(4-fluorophenyl)ethyl]urea] |
| 10.2 | COc1cc2nccc(Oc3ccc(NC(=O)N[C@@H](C)c4ccc(F)cc4)cc3OC)c2cc1OC [Example 23, N-{4-[(6,7-Dimethoxy-4-quinolyl)oxy]-3-methoxyphenyl}-N′-[(1S)-1-(4-fluorophenyl)ethyl]urea] |
| 9.8 | COc1cc2nccc(Oc3ccc(NC(=O)N[C@H](C)c4ccc(F)cc4)c(C(F)(F)F)c3)c2cc1OC [Example 21, N-[4-[(6,7-Dimethoxy-4-quinolyl)oxy]-2-(trifluoromethyl)phenyl]-N′-[(1R)-1-(4-fluorophenyl)ethyl]urea] |
| 8.1 | COc1cc2nccc(Oc3ccc(NC(=O)NC(C)c4ccc(F)cc4)c(C(F)(F)F)c3)c2cc1OC (stereo not shown) [Example 19, N-[4-[(6,7-Dimethoxy-4-quinolyl)oxy]-2-(trifluoromethyl)phenyl]-N′-[1-(4-fluorophenyl)ethyl]urea] |
| 6.2 | COc1cc2nccc(Oc3ccc(NC(=O)N[C@@H](C)c4ccc(F)cc4)c(C(F)(F)F)c3)c2cc1OC [Example 20, N-[4-[(6,7-Dimethoxy-4-quinolyl)oxy]-2-(trifluoromethyl)phenyl]-N′-[(1S)-1-(4-fluorophenyl)ethyl]urea] |
| 4 | COc1cc2nccc(Oc3ccc(NC(=O)NC(C)c4ccc(F)cc4)c(Cl)c3)c2cc1OC (stereo not shown) [Example 4, N-{2-Chloro-4-[(6,7-dimethoxy-4-quinolyl)oxy]phenyl}-N′-[1-(4-fluorophenyl)ethyl]urea] |
| 3.7 | COc1cc(Oc2ccnc3cc(OC)c(OC)cc23)ccc1NC(=O)N[C@H](C)c1ccc(F)cc1 [Example 18, N-{4-[(6,7-Dimethoxy-4-quinolyl)oxy]-2-methoxyphenyl}-N′-[(1R)-1-(4-fluorophenyl)ethyl]urea] |
| 2.2 | COc1cc2nccc(Oc3ccc(NC(=O)N[C@@H](C)c4ccc(F)cc4)c(Cl)c3)c2cc1OC [Example 5, N-{2-Chloro-4-[(6,7-dimethoxy-4-quinolyl)oxy]phenyl}-N′-[(1S)-1-(4-fluorophenyl)ethyl]urea] |
